In patent publication US20240246964A1 (Arbutus Biopharma Corporation, priority 2021, published 2024):

Key:
[1] = biological target: PD-L1 His protein / PD-1 Fc protein (Homo sapiens (Human), UniProt Q9NZQ7); assay: HTRF Assay (PD-1/PD-L1 interaction); type: binding; details: PD-L1 His 6 nM, PD-1 Fc 6 nM
human PD-L1 = human PD-L1 (Homo sapiens (Human), UniProt Q9NZQ7); assay: T cell activation luciferase reporter cell culture system (T Cell Activation Assay); type: cell-based; details: luciferase reporter assay; PD-L1 aAPC/CHO-K1 cells with PD-1 effector Jurkat T cells
Chain of human PD-L1 (Q9NZQ7 19-290): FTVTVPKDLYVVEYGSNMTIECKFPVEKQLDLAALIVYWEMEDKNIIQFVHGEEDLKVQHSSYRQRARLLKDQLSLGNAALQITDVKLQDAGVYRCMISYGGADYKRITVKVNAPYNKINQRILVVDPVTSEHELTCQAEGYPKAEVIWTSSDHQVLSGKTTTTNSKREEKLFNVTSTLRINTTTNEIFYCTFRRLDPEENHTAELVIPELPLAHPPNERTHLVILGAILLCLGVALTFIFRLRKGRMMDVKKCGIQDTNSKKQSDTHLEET

Chain of PD-L1 His protein / PD-1 Fc protein (Q9NZQ7 19-238): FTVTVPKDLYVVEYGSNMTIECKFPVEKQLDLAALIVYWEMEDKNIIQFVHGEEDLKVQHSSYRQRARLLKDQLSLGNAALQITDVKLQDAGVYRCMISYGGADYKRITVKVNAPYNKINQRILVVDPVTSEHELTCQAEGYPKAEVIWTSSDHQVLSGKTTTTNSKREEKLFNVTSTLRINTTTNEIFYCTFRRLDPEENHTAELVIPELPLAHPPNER

Structure (SMILES) | IC50 [1] [nM] | EC50 (human PD-L1) [nM]
COc1nc(-c2cccc(-c3ccnc(-c4cc(OC)c5nc(CNC[C@@H](C)O)nn5c4)c3Cl)c2Cl)ccc1CNC1CCN(C(C)=O)CC1 [Example 638, (R)-1-(4-(((6-(2-Chloro-3-(3-chloro-2-(2-(((2-hydroxypropyl)amino)methyl)-8-methoxy-[1,2,4]triazolo[1,5-a]pyridin-6-yl)pyridin-4-yl)phenyl)-2-methoxypyridin-3-yl)methyl)amino)piperidin-1-yl)ethan-1-one] | 0.2 | 94.9
COc1cc(-c2ncnc(-c3cccc(-c4ccc(CNCc5cnco5)c(OC)n4)c3Cl)c2Cl)ccc1CNCc1cnco1 [Example 643, 1-(6-(2-Chloro-3-(5-chloro-6-(3-methoxy-4-(((oxazol-5-ylmethyl)amino)methyl)phenyl)pyrimidin-4-yl)phenyl)-2-methoxypyridin-3-yl)-N-(oxazol-5-ylmethyl)methanamine] | 4.17 | 1530
COc1cc(-c2nccc(-c3cccc(NC(=O)c4ccc(CNC5CCN(C(C)=O)CC5)cn4)c3C)c2Cl)ccc1CNC1CCN(C(C)=O)CC1 [Example 645, 5-(((1-Acetylpiperidin-4-yl)amino)methyl)-N-(3-(2-(4-(((1-acetylpiperidin-4-yl)amino)methyl)-3-methoxyphenyl)-3-chloropyridin-4-yl)-2-methylphenyl)picolinamide] | 0.44 | 1410
COc1cc(-c2nccc(-c3cccc(NC(=O)c4ccc(CNC5CCOCC5)cn4)c3C)c2Cl)ccc1CNC1CCOCC1 [Example 646, N-(3-(3-Chloro-2-(3-methoxy-4-(((tetrahydro-2H-pyran-4-yl)amino)methyl)phenyl)pyridin-4-yl)-2-methylphenyl)-5-(((tetrahydro-2H-pyran-4-yl)amino)methyl)picolinamide] | 0.48 | 2710
COc1cc(-c2nccc(-c3cccc(NC(=O)c4ccc(CNCCO)cn4)c3C)c2Cl)ccc1CNCCO [Example 648, N-(3-(3-Chloro-2-(4-(((2-hydroxyethyl)amino)methyl)-3-methoxyphenyl)pyridin-4-yl)-2-methylphenyl)-5-(((2-hydroxyethyl)amino)methyl)picolinamide] | 0.05 | 142
COc1cc(-c2nccc(-c3cccc(NC(=O)c4ccc(CNC[C@H](C)O)cn4)c3C)c2Cl)ccc1CNC[C@H](C)O [Example 650, N-(3-(3-Chloro-2-(4-((((S)-2-hydroxypropyl)amino)methyl)-3-methoxyphenyl)pyridin-4-yl)-2-methylphenyl)-5-((((S)-2-hydroxypropyl)amino)methyl)picolinamide] | 0.1 | 144
COc1cc(-c2nccc(-c3cccc(-c4ccc(CNC5CC6(C5)CN(C(C)=O)C6)c(OC)n4)c3C(F)(F)F)c2Cl)ccc1CNC1CC2(C1)CN(C(C)=O)C2 (centres unmarked) [Example 651, 1-(6-(((6-(3-(2-(4-(((2-Acetyl-2-azaspiro[3.3]heptan-6-yl)amino)methyl)-3-methoxyphenyl)-3-chloropyridin-4-yl)-2-(trifluoromethyl)phenyl)-2-methoxypyridin-3-yl)methyl)amino)-2-azaspiro[3.3]heptan-2-yl)ethan-1-one] | 4.06 | ≥ 10000
COc1cc(-c2nccc(-c3cccc(-c4ccc(CNC5CCOCC5)c(OC)n4)c3C#N)c2Cl)ccc1CNC1CCOCC1 [Example 652, 2-(3-Chloro-2-(3-methoxy-4-(((tetrahydro-2H-pyran-4-yl)amino)methyl)phenyl)pyridin-4-yl)-6-(6-methoxy-5-(((tetrahydro-2H-pyran-4-yl)amino)methyl)pyridin-2-yl)benzonitrile] | 0.07 | 227
COc1cc(-c2nccc(-c3cccc(-c4ccc(CN5CCN(C(C)=O)CC5)c(OC)n4)c3Cl)c2Cl)ccc1CN1CCN(C(C)=O)CC1 [Example 655, 1-(4-((6-(3-(2-(4-((4-Acetylpiperazin-1-yl)methyl)-3-methoxyphenyl)-3-chloropyridin-4-yl)-2-chlorophenyl)-2-methoxypyridin-3-yl)methyl)piperazin-1-yl)ethan-1-one] | 9.58 | ≥ 10000
COc1cc(-c2nccc(-c3cccc(NC(=O)c4cn(C)c(=O)n(C)c4=O)c3Cl)c2Cl)ccc1CNC1CCN(C(C)=O)CC1 [Example 656, N-(3-(2-(4-(((1-Acetylpiperidin-4-yl)amino)methyl)-3-methoxyphenyl)-3-chloropyridin-4-yl)-2-chlorophenyl)-1,3-dimethyl-2,4-dioxo-1,2,3,4-tetrahydropyrimidine-5-carboxamide] | 0.16 | 589
COc1cc(-c2nccc(-c3cccc(NC(=O)c4cn(C)c(=O)n(C)c4=O)c3Cl)c2Cl)ccc1CNC[C@@H]1CCC(=O)N1 [Example 657, (S)—N-(2-Chloro-3-(3-chloro-2-(3-methoxy-4-((((5-oxopyrrolidin-2-yl)methyl)amino)methyl)phenyl)pyridin-4-yl)phenyl)-1,3-dimethyl-2,4-dioxo-1,2,3,4-tetrahydropyrimidine-5-carboxamide] | 0.14 | 33.3
COc1cc(-c2nccc(-c3cccc(NC(=O)c4cn(C)c(=O)n(C)c4=O)c3Cl)c2Cl)ccc1CN1CC2(CNC(=O)C2)C1 [Example 658, N-(2-Chloro-3-(3-chloro-2-(3-methoxy-4-((7-oxo-2,6-diazaspiro[3.4]octan-2-yl)methyl)phenyl)pyridin-4-yl)phenyl)-1,3-dimethyl-2,4-dioxo-1,2,3,4-tetrahydropyrimidine-5-carboxamide] | 0.25 | 492
COc1nc(-c2cccc(-c3ccnc(-c4ccc(CN5CC6(C5)CN(C(C)=O)C6)c(OC(F)F)c4)c3Cl)c2Cl)ccc1CN1CC2(CNC(=O)C2)C1 [Example 662, 2-((6-(3-(2-(4-((6-Acetyl-2,6-diazaspiro[3.3]heptan-2-yl)methyl)-3-(difluoromethoxy)phenyl)-3-chloropyridin-4-yl)-2-chlorophenyl)-2-methoxypyridin-3-yl)methyl)-2,6-diazaspiro[3.4]octan-7-one] | 0.74 | 18.5
COc1nc(-c2cccc(-c3ccnc(-c4ccc(CNC5CCN(C(C)=O)CC5)c(OC(F)F)c4)c3Cl)c2Cl)ccc1CN1CC2(CNC(=O)C2)C1 [Example 665, 2-((6-(3-(2-(4-(((1-Acetylpiperidin-4-yl)amino)methyl)-3-(difluoromethoxy)phenyl)-3-chloropyridin-4-yl)-2-chlorophenyl)-2-methoxypyridin-3-yl)methyl)-2,6-diazaspiro[3.4]octan-7-one] | 0.6 | 46.3
COc1cc(-c2nccc(-c3nccc(-c4ccc(CN5CC6(CNC(=O)C6)C5)c(OC)n4)c3Cl)c2Cl)ccc1CN1CC2(CNC(=O)C2)C1 [Example 669, 2-(4-(3′,3″-Dichloro-6-methoxy-5-((7-oxo-2,6-diazaspiro[3.4]octan-2-yl)methyl)-[2,4′:2′,4″-terpyridin]-2″-yl)-2-methoxybenzyl)-2,6-diazaspiro[3.4]octan-7-one] | 0.34 | 296
COc1cc(-c2nccc(-c3cccc(NC(=O)c4ccc(CNC[C@@H]5CCC(=O)N5)cn4)c3Cl)c2Cl)ccc1CNC[C@@H]1CCC(=O)N1 [Example 675, N-(2-Chloro-3-(3-chloro-2-(3-methoxy-4-(((((S)-5-oxopyrrolidin-2-yl)methyl)amino)methyl)phenyl)pyridin-4-yl)phenyl)-5-(((((S)-5-oxopyrrolidin-2-yl)methyl)amino)methyl)picolinamide] | 0.26 | 26.9
